Measurements from patent US4013762A, “Growth promotion” (Richardson-Merrell Inc., priority 1976, dated 1977).
Like-named read-outs stand apart in the source and are kept apart here.

Tests used:
[1] = test system: poultry and ruminants; conditions: background, known; cited from earlier work
[2] = test system: muscle fiber; conditions: background, known; cited from earlier work
[3] = target: T1, androgen receptor (Rattus norvegicus, UniProt P15207); assay: Androgen binding: competitive binding with 3H-testosterone labeled cytosol receptor sites, rat prostate cytosol
T1 construct: male rats were castrated and the prostate cytosol was prepared; from tissue; host or cells: prostate cytosol of castrated male rats, prepared 24 to 48 hours after surgery
T1 sequence (P15207 1-902): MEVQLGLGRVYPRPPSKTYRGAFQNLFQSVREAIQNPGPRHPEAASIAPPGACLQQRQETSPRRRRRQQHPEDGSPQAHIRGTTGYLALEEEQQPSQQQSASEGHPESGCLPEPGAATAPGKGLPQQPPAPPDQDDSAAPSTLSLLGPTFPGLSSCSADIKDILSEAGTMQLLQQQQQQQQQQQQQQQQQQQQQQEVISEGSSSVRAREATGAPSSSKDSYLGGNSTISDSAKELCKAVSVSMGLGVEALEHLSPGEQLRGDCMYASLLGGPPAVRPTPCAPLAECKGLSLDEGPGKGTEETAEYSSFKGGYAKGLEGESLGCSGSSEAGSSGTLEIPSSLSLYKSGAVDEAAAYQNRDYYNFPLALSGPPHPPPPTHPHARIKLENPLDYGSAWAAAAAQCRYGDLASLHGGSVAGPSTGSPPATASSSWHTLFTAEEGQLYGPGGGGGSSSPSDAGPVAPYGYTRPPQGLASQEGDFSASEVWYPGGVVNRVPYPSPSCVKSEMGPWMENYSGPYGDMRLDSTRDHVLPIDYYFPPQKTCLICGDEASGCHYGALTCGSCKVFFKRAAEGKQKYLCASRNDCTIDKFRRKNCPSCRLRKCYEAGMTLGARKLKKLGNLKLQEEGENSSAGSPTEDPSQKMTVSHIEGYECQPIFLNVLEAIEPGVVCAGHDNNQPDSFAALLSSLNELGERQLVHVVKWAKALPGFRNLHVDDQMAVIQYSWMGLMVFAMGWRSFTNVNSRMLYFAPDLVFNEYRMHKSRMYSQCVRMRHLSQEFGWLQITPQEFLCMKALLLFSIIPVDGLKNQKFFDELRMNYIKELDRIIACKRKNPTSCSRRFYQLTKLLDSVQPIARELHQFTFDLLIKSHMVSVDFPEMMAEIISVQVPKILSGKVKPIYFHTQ
Source text: This binding is the first step necessary for hormonal action.

[4] = test system: ten day old leghorn chicks; assay: Chick weight gain, subcutaneous treatment for six days; format: in vivo; conditions: for Weight Gain (g ± S.E.M.): gain during one week, control 52.7 ± 1.6, * significantly different from controls, p <- 0.05
[5] = test system: muscle fiber; assay: Masculinizing effect on the muscle fiber; format: in vivo; conditions: applicant's findings
[6] = reported in U.S. Pat. Nos. 3,235,573 and 3,449,381; cited from earlier work
[7] = test system: poultry and ruminants; assay: Growth promotion in animals; format: in vivo; conditions: applicant's findings

Q: With `CSCCC(O)C(=O)O` (stereo not drawn) [α-hydroxy-γ-methylmercaptobutyric acid] as the compound, how does the “growth promotion” value [1] read?
A: promote growth by improving feed efficiency

Q: With `CCC(=O)O[C@H]1CC[C@H]2[C@@H]3CCC4=CC(=O)CC[C@]4(C)[C@H]3CC[C@]12C` [testosterone propionate] as the compound, how does the “growth promotion” value [1] read?
A: effective in promoting growth in animals

Q: What about the “masculinization of the muscle fiber” value [2] of the same compound?
A: masculinization of the muscle fiber

Q: What does the source list for `C[C@]12CC[C@H]3[C@@H](CCC4=CC(=O)CC[C@@]43C=O)[C@@H]1CCC2=O` [3,17-Dioxoandrost-4-en-19-al, 3,17-dioxoandrost-4-en-19-al]?
A: androgen receptor binding ([3]; in vitro, androgen target tissue): lack of androgen binding affinity; % Binding (androgen binding, relative) ([3]; relative to 5α-dihydrotestosterone equated to 100, 4 × 10^-6 to 4 × 10^-10 molar, castrated male rat prostate cytosol): 0.07%; Weight Gain (g ± S.E.M.) ([4]; 1 mg/kg/day subcutaneously for six days): 58.8 ± 1.4 g; Weight Gain (g ± S.E.M.) ([4]; 10 mg/kg/day subcutaneously for six days): 63.0 ± 1.1 g; Weight Gain (g ± S.E.M.) ([4]; 30 mg/kg/day subcutaneously for six days): 74.0 ± 2.6 g; growth rate as measured by weight gain ([4]; 1.0, 10 and 30 mg/kg/day s.c. six days, compared to untreated control chicks): significant increase in growth rate

Q: Which results are given for `C[C@]12CC[C@H]3[C@@H](CCC4=CC(=O)CC[C@@]43C=O)[C@@H]1CC[C@@H]2O` [3-oxo-17β-hydroxyandrost-4-en-19-al]?
A: masculinizing effect on the muscle fiber [5]: without any masculinizing effect on the muscle fiber; anabolic-androgenic activity [6]: anabolic-androgenic activity; growth promotion [7]: effective in growth promotion in animals
